Residues, ends and D or L forms follow the SMILES beside them. No end group written: not given here.
What was measured:
E. coli K-12 = assay: Bacterial cell viability, lux luminescence and OD600, with or without LPS; assay type: cell-based, Escherichia coli; settings: co-incubation with 2.5 μM Aeromonas salmonicida LPS
Excerpt: (§1) To evaluate the effect of antimicrobial peptides on the viability of bacteria in a fast and reliable manner we used the lux CDABE operon from Photorhabdus luminescens as a reporter system in gram negative test bacteria and the modified luxABCDE operon in S. aureus (Vesterlund et al. 2004). Bacterial bioluminescence is directly dependent on metabolic activity, since reduction equivalents are needed to drive light emission. Any form of interruption of bacterial cell integrity or metabolism will therefore be detected as a reduction in light emission.
(§2) For the assay we used S. aureus (RN4220), E. coli K-12 and Salmonella enterica serovar typhimurium (ATCC 14028) transformed with the respective lux-operon containing plasmids (Vesterlund et al. 2004).
(§3) For each experiment a fresh colony was picked from Luria-Bertani plates supplemented with 10 μg/ml of erythromycin in case of S. aureus and with 100 μg/ml of ampicillin in case of E. coli and S. enterica serovar Typhimurium. Each colony was suspended in 5 ml of Müller-Hinton medium with appropriate antibiotics. The culture was incubated over night at 37° C. in a shaking incubator. The next morning 0.5 ml of this culture was transferred to 30 ml fresh MH medium in an Erlenmeyer-flask supplemented with the respective antibiotic. The flask was incubated (200 rpm shaking; 37° C.) until an OD600 of 0.5-0.8 was reached. The culture was then diluted to an OD600 of about 0.02-0.03 before transfer to the 96 well opaque plates with optical bottom (Packard ViewPlate) used for the assay.
The synthesized peptides were dissolved in water and aliquots frozen at −18° C. until use. Twofold dilutions of test peptides (final concentrations ranging from 0.31 to 80 μM) were directly prepared in 96 well microtiter plates in a volume of 10 μl in water. 90 μl is of indicator bacteria in MH medium were added directly to the prepared and pre-warmed (30 minutes at 37° C.) plate before starting the measurement in a Victor multiplate reader (Perkin Elmer) at 37° C. Both OD600 and luminescence in counts per second (cps) were followed over 5 hours in measuring intervals of 5 minutes. The plates where shaken before each measurement (20 sec.; 5 mm orbital shaking; 10 sec waiting). The growth curves and light emission curves were drawn and evaluated to determine the MIC for each indicator strain. The MIC was defined as the concentration of test compound causing more than 50% reduction in bioluminescence (cps) or optical density (OD600) after 5 hours, compared to the growth control. Cecropin P1 was used as positive control. […]
A second plate with an otherwise similar setup (as described for the luminescence assay in example 3) was prepared, but with addition of Aeromonas salmonicida LPS to the peptide dilutions before pre-warming. […]

[1] = system: Salmonella enterica serovar typhimurium (ATCC 14028); assay: as above; assay type: cell-based; settings: co-incubation with 2.5 μM Aeromonas salmonicida LPS
Excerpt: as §1, §2, §3
The synthesized peptides were dissolved in water and aliquots frozen at −18° C. until use. Twofold dilutions of test peptides (final concentrations ranging from 0.31 to 80 μM) were directly prepared in 96 well microtiter plates in a volume of 10 μl in water. 90 μl is of indicator bacteria in MH medium were added directly to the prepared and pre-warmed (30 minutes at 37° C.) plate before starting the measurement in a Victor multiplate reader (Perkin Elmer) at 37° C. Both OD600 and luminescence in counts per second (cps) were followed over 5 hours in measuring intervals of 5 minutes. The plates where shaken before each measurement (20 sec.; 5 mm orbital shaking; 10 sec waiting). The growth curves and light emission curves were drawn and evaluated to determine the MIC for each indicator strain. The MIC was defined as the concentration of test compound causing more than 50% reduction in bioluminescence (cps) or optical density (OD600) after 5 hours, compared to the growth control. Cecropin P1 was used as positive control. The results (table 14a-b) confirm the results obtained in example 2, showing a pronounced antibacterial effect of the longest peptide fragments. […] The partial peptides P17 HC (1-20), both bromated and unbromated, inhibit growth only in higher concentrations.
A second plate with an otherwise similar setup (as described for the luminescence assay in example 3) was prepared, but with addition of Aeromonas salmonicida LPS to the peptide dilutions before pre-warming. The LPS end concentration in each well was approximately 2.5 μM.

[2] = system: C. glutamicum (ATCC 13032); assay type: cell-based, Corynebacterium glutamicum
Method in brief: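 Peptide fractions were incubated with actively growing bacteria in Mueller Hinton medium at a starting concentration of 3×10^4 cells per ml. Growth was monitored continuously in a Bioscreen C reader; polymyxin B served as reference.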

THP-1 cells = assay: in vitro; assay type: cell-based, human
Experimental: The toxicity of test peptides on THP-1 cells was measured using the MIT method (Mosmann, 1983), with minor modifications. To induce monocyte-macrophage differentiation, THP-1 cells were cultured in 96-well culture plates (10^6 cells/well) in a volume of 100 μl RPMI 1640 medium, containing 50 ng/ml PMA (which is known to induce the maturation of monocytes) and incubated in a humidified atmosphere of 5% CO2 at 37° C. for 48 hours. The medium was then removed and the cells were washed with PBS, added 100 μl fresh medium (without PMA) and incubated for another 24 hours. Medium was removed and the adherent macrophages were treated with 100 μl of peptide solution (concentrations ranging from 0 to 800 μg/ml), diluted in RPMI-1640 assay medium without FBS. After incubation at 37° C. for 1 hour, the cells were added LPS (0.1 μg/ml) and further incubated for 4 hours. Cells treated with Triton X-100 (1%) were used as positive control (100% killing) whereas cells plus medium only were used as negative control. Following the incubation period, 10 μl MTT (5 mg/ml) dissolved in phosphate-buffered saline (PBS) was added to each well, and the plate was further incubated for 2 hours. A volume of 70 μl of the supernatant was then removed and 100 μl acid alcohol (0.04 M HCl in isopropanol) added to each well to dissolve the dark blue crystals. The plate was placed on a shaker for 1 hour at room temperature and read spectrophotometrically at 595 nm in a microtiter plate reader (DTX880 Multimode Detector, Beckman Coulter). Cell survival (%) was then determined from the ΔA595 nm relative to negative control (100% living cells) and expressed as 50% inhibitory concentration (IC50). The IC50 values were estimated from the dose-response curves, which were obtained by averaging at least 3 parallel experiments.

Compound	MIC, more than 50% reduction in optical density, E. coli, P + LPS (E. coli K-12; OD600, 5 hours)	MIC, more than 50% reduction in luminescence, E. coli, P + LPS (E. coli K-12; luminescence (cps), 5 hours)	MIC, more than 50% reduction in optical density, S. enterica, P + LPS ([1]; OD600, 5 hours)	MIC, more than 50% reduction in luminescence, S. enterica, P + LPS ([1]; luminescence (cps), 5 hours)	Minimal inhibitory concentration, C. glutamicum [2]	Toxicity to THP-1 cells TC50 (THP-1 cells)
CC[C@H](C)[C@H](NC(=O)CNC(=O)[C@H](CO)NC(=O)[C@H](CCCCN)NC(=O)[C@@H](NC(=O)[C@H](C)NC(=O)[C@H](Cc1c[nH]cn1)NC(=O)[C@H](CO)NC(=O)[C@@H](NC(=O)[C@H](CCCCN)NC(=O)[C@H](Cc1c[nH]cn1)NC(=O)[C@H](Cc1ccccc1)NC(=O)[C@@H](NC(=O)[C@H](CCCCN)NC(=O)[C@H](CCCCN)NC(=O)[C@H](Cc1ccccc1)NC(=O)C(Cc1c[nH]c2ccc(Br)cc12)NC(=O)CN)[C@@H](C)O)C(C)C)C(C)C)C(=O)N[C@@H](Cc1c[nH]cn1)C(=O)N[C@@H](C)C(=O)O (stereo partly drawn) [P17 HC-Br (1-20)] (HELM PEPTIDE1{G.[O=C(C(Cc1c[nH]c2ccc(Br)cc12)N[*:1])[*:2]].F.K.K.T.F.H.K.V.S.H.A.V.K.S.G.I.H.A}$$$$V2.0; N-terminus and C-terminus assumed)	40 µM	20 µM	10 µM	10 µM	–	–
GWFKKTFHKVSHAVKSGIHA [P17 HC (1-20)]	–	–	–	–	1.56 µM	—^b

Reference: patent publication US20100093642A1, “NOVEL POLYPEPTIDES” (priority 2006, published 2010)
